Results: article PMC3855985, “Simultaneous Determination of Volatile Constituents from Acorus tatarinowii Schott in Rat Plasma by Gas Chromatography-Mass Spectrometry with Selective Ion Monitoring and Application in Pharmacokinetic Study” (Journal of Analytical Methods in Chemistry, 2013)

Experiment: Pharmacokinetic study in rats after single oral dose of volatile oil of Acorus tatarinowii Schott (GC-MS/SIM of plasma)
Settings: for CL / Vd / AUC(0~t) / AUC(0~∞) / C max / T1/2 α / T 1/2β / T max: rats (n = 6); for CL / Vd / Compartment model of the plasma profile / AUC(0~t) / AUC(0~∞) / C max / T1/2 α / T 1/2β / T max: single oral dose 0.2 g/kg volatile oil of Acorus tatarinowii Schott; for Compartment model of the plasma profile: rats
Method: GC-MS analyses were performed with a Shimadzu GC-MS QP2010 (Kyoto, Japan). Chromatographic separation was achieved on a Restek Rxi-5MS capillary column (30 m × 0.32 mm I.D., 0.25 μm film thickness, Shimadzu, Japan) using nitrogen as carrier gas at 2 mL/min in a constant flow rate mode. […] The temperatures of injector, interface, and ion source were 250, 280, and 230°C, respectively. Detection was operated by selected ionmonitoring (SIM) mode (70 eV, electron impact mode).
In the SIM mode, the peaks of α-asarone, β-asarone, methyl eugenol, and IS in plasma were identified by matching the retention time and the abundant ions of m/z 178 for methyl eugenol, m/z 208 for α-asarone, β-asarone, and m/z 144 for IS. The injection volume was 1.0 μL. Data were collected using the GC-MS solution (Kyoto, Japan).
Six healthy male Sprague-Dawley rats, weighing 250–280 g, were supplied by the Guangdong Laboratory Animals Monitoring Institute (Guangdong, China). The rats were housed in a standard animal holding room with normal access to food and water and 12 h light cycle. The animals were fasted overnight prior to dosing, with water allowance ad libitum. All animal experiments were carried out according to the Guidelines for the Care and Use of Laboratory Animals and were approved by the Animal Experimentation Ethics Committee.
In a 1.5 mL Eppendorf tube, 100 μL of plasma was spiked with 10 μL of 2.0 μg/mL IS solution. An aliquot of 40 μL 10% (V : V) trichloracetic acid water solution and 600 μL acetonitrile was used to remove the proteins in the plasma through vortexed for 2 min followed by the centrifugation of 10 min at 8000 rpm. The supernatant was collected in a clean tube for next use, while the residue was extracted by 300 μL acetic ether for three times. The acetic ether layer and the above supernatant were collected together and evaporated to dryness under a stream of nitrogen. The residue was dissolved in 100 μL of acetone for further GC-MS analysis.
Volatile oil of Acorus tatarinowii Schott was administered orally to the rat in a single dose of 0.2 g/kg. Blood samples were collected in heparinized tube at 0, 5, 10, 20, 30, 60, 90, 120, 180, 300, 480, 720, 960, and 1200 min after dose. All the samples were extracted and analyzed under the proposed condition.
The Microsoft Excel Program Drug and Statistics 2.0 (T.C.M. Shanghai, China) was employed to process and calculate the pharmacokinetic parameters. The parameters of the area under curve (AUC), the maximum plasma concentration (C max) and the corresponding time (t max), the half-life of absorption (t 1/2), and so forth were used to decrypt the pharmacokinetic properties of α-asarone, β-asarone, and methyl eugenol. Statistical analysis of the biological data was performed by the Student's t-test. All results were expressed as arithmetic mean ± standard deviation (SD).

[1] = male, Sprague-Dawley, rat, plasma, po, 0.2 g/kg

In the case of `C=CCc1ccc(OC)c(OC)c1` [Methyl Eugenol, Methyl eugenol], the AUC(0-inf) [1] is reported as 41.5 ng·h/mL, the AUC(0-t) [1] is reported as 35.5 ng·h/mL and the Cmax [1] is reported as 21 ± 1 ng/mL. The Tmax [1] was 10 min, the half-life [1] was 67.7 ± 3.32 min and the CL (plasma) was 0.40 ± 0.04 mL/min/kg. The Vd (plasma) was 39.35 ± 4.08 L/kg and the “Compartment model of the plasma profile” value was “one-compartment open models”.

With `C/C=C/c1cc(OC)c(OC)cc1OC` [α-Asarone] the “AUC(0~t)” value (plasma) was 47.51 ± 28.49 mg·min/L, the “AUC(0~∞)” value (plasma) was 56.67 ± 35.91 mg·min/L and the C max (plasma) was 530 ± 240 ng/mL. For the same compound, the CL (plasma) was 0.60 ± 0.44 mL/min/kg, the “T1/2 α” value (plasma) was 58.92 ± 20.80 min and the “T 1/2β” value (plasma) was 69.28 ± 6.12 min. The T max (plasma) was 11.25 ± 6.29 min, the Vd (plasma) was 22.93 ± 16.11 L/kg and the “Compartment model of the plasma profile” value was “two-compartment open model”.

For `C/C=C\c1cc(OC)c(OC)cc1OC` [β-Asarone, β-asarone], the “AUC(0~t)” value (plasma) was 368.43 ± 40.05 mg·min/L, the “AUC(0~∞)” value (plasma) was 407.52 ± 55.78 mg·min/L and the C max (plasma) was 2470 ± 580 ng/mL. The CL (plasma) was 0.38 ± 0.05 mL/min/kg, the “T1/2 α” value (plasma) was 54.39 ± 29.46 min and the “T 1/2β” value (plasma) was 69.30 ± 0.21 min. The T max (plasma) was 13.75 ± 11.09 min, the Vd (plasma) was 149.87 ± 90.78 L/kg and the “Compartment model of the plasma profile” value was “two-compartment open model”.
